Laboratory results published in ChEMBL document CHEMBL5390283, “Discovery of PVD-06 as a Subtype-Selective and Efficient PTPN2 Degrader” (J Med Chem, 2023).
Active and inactive are the calls of the source. The calls are words filed in the database; no cut-off is given here.

Assays:
Assay type in all cases: cell-based
[1] = target: Protein cereblon/Tyrosine-protein phosphatase non-receptor type 2 (Homo sapiens) (UniProt P17706+Q96SW2); experiment: PROTAC activity at CRBN/PTPN2 in human Jurkat cells assessed as induction of PTPN2 degradation at 0.01 to 10 uM by Western blot analysis; conditions: dose 0.01-10 µM
[2] = target: T1, von Hippel-Lindau disease tumor suppressor/Tyrosine-protein phosphatase non-receptor type 2 (Homo sapiens, UniProt P17706+P40337); experiment: PROTAC activity at VHL/PTPN2 in human Jurkat cells assessed as induction of PTPN2 degradation at 100 nM by Western blot analysis relative to control
Target sequence in this assay (P17706 whole entry, looked up): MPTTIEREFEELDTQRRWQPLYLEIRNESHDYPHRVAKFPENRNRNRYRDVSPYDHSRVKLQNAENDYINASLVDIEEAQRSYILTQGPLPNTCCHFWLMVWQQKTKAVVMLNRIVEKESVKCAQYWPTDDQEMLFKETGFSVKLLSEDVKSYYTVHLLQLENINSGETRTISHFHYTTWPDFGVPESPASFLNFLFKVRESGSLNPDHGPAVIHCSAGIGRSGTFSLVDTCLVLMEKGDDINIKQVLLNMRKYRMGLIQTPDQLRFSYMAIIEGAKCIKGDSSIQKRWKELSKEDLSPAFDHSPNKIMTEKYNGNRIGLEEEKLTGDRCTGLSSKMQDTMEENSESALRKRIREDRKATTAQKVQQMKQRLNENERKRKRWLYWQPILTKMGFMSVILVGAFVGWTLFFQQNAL
Target sequence in this assay (P40337 whole entry, looked up): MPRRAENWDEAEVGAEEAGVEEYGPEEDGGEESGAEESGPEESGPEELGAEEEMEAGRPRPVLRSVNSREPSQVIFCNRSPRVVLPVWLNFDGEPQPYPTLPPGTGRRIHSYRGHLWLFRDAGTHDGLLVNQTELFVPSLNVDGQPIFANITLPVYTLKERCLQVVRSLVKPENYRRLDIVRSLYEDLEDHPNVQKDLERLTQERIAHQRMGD

[3] = target: T1, von Hippel-Lindau disease tumor suppressor/Tyrosine-protein phosphatase non-receptor type 2; experiment: PROTAC activity at VHL/PTPN2 in human Jurkat cells assessed as induction of PTPN2 degradation at 1 uM by Western blot analysis relative to control
Target sequence in this assay (P17706 whole entry, looked up): as the sequence (P17706 whole entry, looked up) above
Target sequence in this assay (P40337 whole entry, looked up): as the sequence (P40337 whole entry, looked up) above

[4] = target: T1, von Hippel-Lindau disease tumor suppressor/Tyrosine-protein phosphatase non-receptor type 2; experiment: PROTAC activity at VHL/PTPN2 in human Jurkat cells assessed as induction of PTPN2 degradation at 10 uM by Western blot analysis relative to control
Target sequence in this assay (P17706 whole entry, looked up): as the sequence (P17706 whole entry, looked up) above
Target sequence in this assay (P40337 whole entry, looked up): as the sequence (P40337 whole entry, looked up) above

[5] = target: T1, von Hippel-Lindau disease tumor suppressor/Tyrosine-protein phosphatase non-receptor type 2; experiment: PROTAC activity at VHL/PTPN2 in human Jurkat cells assessed as induction of PTPN2 degradation by Western blot analysis
Target sequence in this assay (P17706 whole entry): as the sequence (P17706 whole entry, looked up) above
Target sequence in this assay (P40337 whole entry): as the sequence (P40337 whole entry, looked up) above

[6] = target: von Hippel-Lindau disease tumor suppressor/Tyrosine-protein phosphatase non-receptor type 1 (Homo sapiens, UniProt P18031+P40337); experiment: PROTAC activity at VHL/PTP1B in human Jurkat cells assessed as induction of PTP1B degradation by Western blot analysis
Chain of von Hippel-Lindau disease tumor suppressor/Tyrosine-protein phosphatase non-receptor type 1 (P18031 whole entry): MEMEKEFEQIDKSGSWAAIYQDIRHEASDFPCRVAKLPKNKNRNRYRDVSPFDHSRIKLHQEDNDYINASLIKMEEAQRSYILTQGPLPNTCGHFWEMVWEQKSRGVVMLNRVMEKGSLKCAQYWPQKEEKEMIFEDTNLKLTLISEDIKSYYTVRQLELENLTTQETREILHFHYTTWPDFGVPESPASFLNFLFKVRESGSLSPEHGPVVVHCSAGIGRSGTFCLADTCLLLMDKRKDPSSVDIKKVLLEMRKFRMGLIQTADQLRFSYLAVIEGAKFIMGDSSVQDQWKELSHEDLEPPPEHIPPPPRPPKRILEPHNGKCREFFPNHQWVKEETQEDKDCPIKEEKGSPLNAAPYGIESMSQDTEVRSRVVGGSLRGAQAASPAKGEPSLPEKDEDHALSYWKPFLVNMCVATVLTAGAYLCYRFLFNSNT
Chain of von Hippel-Lindau disease tumor suppressor/Tyrosine-protein phosphatase non-receptor type 1 (P40337 whole entry): as the sequence (P40337 whole entry, looked up) above

Chain of Protein cereblon/Tyrosine-protein phosphatase non-receptor type 2 (Homo sapiens) (P17706 whole entry, looked up): as the sequence (P17706 whole entry, looked up) above
Chain of Protein cereblon/Tyrosine-protein phosphatase non-receptor type 2 (Homo sapiens) (Q96SW2 whole entry, looked up): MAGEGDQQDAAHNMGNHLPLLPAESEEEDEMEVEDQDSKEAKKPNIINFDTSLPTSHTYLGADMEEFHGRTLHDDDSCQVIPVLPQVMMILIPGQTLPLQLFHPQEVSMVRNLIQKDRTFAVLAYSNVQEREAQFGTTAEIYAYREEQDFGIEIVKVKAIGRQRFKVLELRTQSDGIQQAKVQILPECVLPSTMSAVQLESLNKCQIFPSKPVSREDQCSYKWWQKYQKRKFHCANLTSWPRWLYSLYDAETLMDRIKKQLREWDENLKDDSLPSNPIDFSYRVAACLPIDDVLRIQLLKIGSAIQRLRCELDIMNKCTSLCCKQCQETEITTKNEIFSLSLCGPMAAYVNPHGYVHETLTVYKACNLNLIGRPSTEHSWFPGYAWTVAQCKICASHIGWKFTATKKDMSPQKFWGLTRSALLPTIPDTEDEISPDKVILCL

| Activity [1] | Activity [2] [%] | Activity [3] [%] | Activity [4] [%] | EC50 [5] [nM] | EC50 [6] [nM] | SMILES |
| --- | --- | --- | --- | --- | --- | --- |
|  | -18 | 33 | 91 |  |  | Cc1ncsc1-c1ccc([C@H](C)NC(=O)[C@@H]2C[C@@H](O)CN2C(=O)[C@@H](NC(=O)CNC(=O)Cn2cc(-c3ccc4cc(O)c(N5CC(=O)NS5(=O)=O)c(F)c4c3)cn2)C(C)(C)C)cc1 |
|  | 40 | 84 | 99 | 94 | 142 | Cc1ncsc1-c1ccc([C@H](C)NC(=O)[C@@H]2C[C@@H](O)CN2C(=O)[C@@H](NC(=O)CCCCCCNC(=O)Cn2cc(-c3ccc4cc(O)c(N5CC(=O)NS5(=O)=O)c(F)c4c3)cn2)C(C)(C)C)cc1 |
|  | 26 | 81 | 98 |  |  | Cc1ncsc1-c1ccc([C@H](C)NC(=O)[C@@H]2C[C@@H](O)CN2C(=O)[C@@H](NC(=O)CCCNC(=O)Cn2cc(-c3ccc4cc(O)c(N5CC(=O)NS5(=O)=O)c(F)c4c3)cn2)C(C)(C)C)cc1 |
|  | -3 | -8 | -53 |  |  | Cc1ncsc1-c1ccc([C@H](C)NC(=O)[C@@H]2C[C@@H](O)CN2C(=O)[C@@H](NC(=O)Cn2cc(-c3ccc4cc(O)c(N5CC(=O)NS5(=O)=O)c(F)c4c3)cn2)C(C)(C)C)cc1 |
|  | -1 | 57 | 96 |  |  | Cc1ncsc1-c1ccc([C@H](C)NC(=O)[C@@H]2C[C@@H](O)CN2C(=O)[C@@H](NC(=O)CCNC(=O)Cn2cc(-c3ccc4cc(O)c(N5CC(=O)NS5(=O)=O)c(F)c4c3)cn2)C(C)(C)C)cc1 |
|  | 37 | 84 | 99 | 77 | 758 | Cc1ncsc1-c1ccc([C@H](C)NC(=O)[C@@H]2C[C@@H](O)CN2C(=O)[C@@H](NC(=O)CCCCCCCNC(=O)Cn2cc(-c3ccc4cc(O)c(N5CC(=O)NS5(=O)=O)c(F)c4c3)cn2)C(C)(C)C)cc1 |
|  | 29 | 77 | 92 |  |  | Cc1ncsc1-c1ccc([C@H](C)NC(=O)[C@@H]2C[C@@H](O)CN2C(=O)[C@@H](NC(=O)CCCCNC(=O)Cn2cc(-c3ccc4cc(O)c(N5CC(=O)NS5(=O)=O)c(F)c4c3)cn2)C(C)(C)C)cc1 |

Further lines, the compound ahead of its results:

| SMILES | Activity [1] | Activity [2] [%] | Activity [3] [%] | Activity [4] [%] | EC50 [5] [nM] | EC50 [6] [nM] |
| --- | --- | --- | --- | --- | --- | --- |
| Cn1c(=O)n(C2CCC(=O)NC2=O)c2ccc(C3CCN(CCn4cc(-c5ccc6cc(O)c(N7CC(=O)NS7(=O)=O)c(F)c6c5)cn4)CC3)cc21 (centres undefined) | Active |  |  |  |  |  |
| Cc1ncsc1-c1ccc([C@H](C)NC(=O)[C@@H]2C[C@@H](O)CN2C(=O)[C@@H](NC(=O)CCNC2CCN(C(=O)Cn3cc(-c4ccc5cc(O)c(N6CC(=O)NS6(=O)=O)c(F)c5c4)cn3)CC2)C(C)(C)C)cc1 |  | 15 | 35 | 85 |  |  |
| Cn1c(=O)n(C2CCC(=O)NC2=O)c2ccc(C3CCN(C(=O)Cn4cc(-c5ccc6cc(O)c(N7CC(=O)NS7(=O)=O)c(F)c6c5)cn4)CC3)cc21 (centres undefined) | Active |  |  |  |  |  |
| Cc1ncsc1-c1ccc([C@H](C)NC(=O)[C@@H]2C[C@@H](O)CN2C(=O)[C@@H](NC(=O)c2cn(CCCNC(=O)Cn3cc(-c4ccc5cc(O)c(N6CC(=O)NS6(=O)=O)c(F)c5c4)cn3)nn2)C(C)(C)C)cc1 |  | -2 | 2 | 62 |  |  |
| O=C(Cn1cc(-c2ccc3cc(O)c(N4CC(=O)NS4(=O)=O)c(F)c3c2)cn1)NCCCCNc1cccc2c1C(=O)N(C1CCC(=O)NC1=O)C2=O (centres undefined) | Active |  |  |  |  |  |
| O=C(Cn1cc(-c2ccc3cc(O)c(N4CC(=O)NS4(=O)=O)c(F)c3c2)cn1)NCCCNc1cccc2c1C(=O)N(C1CCC(=O)NC1=O)C2=O (centres undefined) | Active |  |  |  |  |  |
| O=C(Cn1cc(-c2ccc3cc(O)c(N4CC(=O)NS4(=O)=O)c(F)c3c2)cn1)NCCCCCNc1cccc2c1C(=O)N(C1CCC(=O)NC1=O)C2=O (centres undefined) | Active |  |  |  |  |  |
| Cc1ncsc1-c1ccc([C@H](C)NC(=O)[C@@H]2C[C@@H](O)CN2C(=O)[C@@H](NC(=O)CCCCCCCCNC(=O)Cn2cc(-c3ccc4cc(O)c(N5CC(=O)NS5(=O)=O)c(F)c4c3)cn2)C(C)(C)C)cc1 |  | 27 | 60 | 94 |  |  |
